# Measurements from patent publication US20080114007A1 (priority 2006, published 2008).
# Where two headings read alike, the source gives them in different places.
# Target: CSF-1R (Homo sapiens, UniProt P07333)
# Experiment: Peptide (non-phosphorylated) assay, fluorescence polarization competition immunoassay
# Format: biochemical
# Conditions: 308 μM SYEGNSYTFIDPTQ peptide, 1 mM ATP, 80 min, mean of at least three determinations
# Protocol: The kinase reaction was initiated by adding 1 μL of 10 mM ATP in assay buffer. […] Positive and negative control wells were included on each plate, where 4% DMSO in assay buffer was substituted for the compound; in addition, positive control wells received 1.2 μL of 50 mM EDTA before the start of the reaction.
# The plates were covered and incubated at room temperature for 80 min. Reactions were stopped by addition of 1.2 μL of 50 mM EDTA. Each well then received 10 μL of a 1:1:3 mixture of 10× anti-phosphotyrosine antibody, 10×PTK green tracer, and FP dilution buffer, respectively (Cat. # P2837, Invitrogen, Carlsbad, Calif.). The plates were covered, incubated for 30 min at room temperature, and the fluorescence polarization was read on an Analyst plate reader (Molecular Devices).
# [1] = 0.7 nM CSF-1R, read-out: c-fms Peptide IC50
# CSF-1R, sequence (P07333 20-972): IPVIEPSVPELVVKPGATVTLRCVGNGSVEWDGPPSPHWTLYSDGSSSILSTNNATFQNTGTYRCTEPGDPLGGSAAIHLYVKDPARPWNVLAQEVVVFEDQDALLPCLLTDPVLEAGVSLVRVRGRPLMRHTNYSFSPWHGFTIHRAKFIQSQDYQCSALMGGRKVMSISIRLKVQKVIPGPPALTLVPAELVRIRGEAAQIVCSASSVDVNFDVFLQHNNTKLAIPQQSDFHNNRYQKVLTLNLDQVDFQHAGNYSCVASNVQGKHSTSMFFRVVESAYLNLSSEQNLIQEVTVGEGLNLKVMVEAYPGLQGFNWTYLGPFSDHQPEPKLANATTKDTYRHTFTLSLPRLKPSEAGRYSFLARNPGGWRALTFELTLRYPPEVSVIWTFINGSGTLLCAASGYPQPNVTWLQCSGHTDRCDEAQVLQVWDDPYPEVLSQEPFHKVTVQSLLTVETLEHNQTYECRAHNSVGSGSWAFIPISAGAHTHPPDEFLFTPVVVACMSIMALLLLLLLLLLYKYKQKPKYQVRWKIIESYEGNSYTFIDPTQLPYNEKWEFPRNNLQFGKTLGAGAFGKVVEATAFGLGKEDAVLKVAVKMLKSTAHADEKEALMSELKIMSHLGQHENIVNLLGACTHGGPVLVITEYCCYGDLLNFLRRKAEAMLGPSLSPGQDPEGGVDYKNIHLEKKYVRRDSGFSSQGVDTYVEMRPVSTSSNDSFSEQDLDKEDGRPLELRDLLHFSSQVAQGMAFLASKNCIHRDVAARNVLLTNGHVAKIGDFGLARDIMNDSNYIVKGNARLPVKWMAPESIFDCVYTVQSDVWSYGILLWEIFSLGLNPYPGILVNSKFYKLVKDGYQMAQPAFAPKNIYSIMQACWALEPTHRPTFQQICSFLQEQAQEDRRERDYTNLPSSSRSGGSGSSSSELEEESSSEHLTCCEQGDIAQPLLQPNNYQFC
Structure (SMILES),IC50 [1] [nM],"IC50 (c-fms Peptide IC50, 0.7 nM CSF-1R) [nM]"
"CONC(=O)c1cn(-c2ccc(C)c(C)c2)c2nc(Nc3ccc(CCN4CCCC4)cc3)ncc2c1=O [Cpd 51, 8-(3,4-dimethyl-phenyl)-5-oxo-2-[4-(2-pyrrolidin-1-yl-ethyl)-phenylamino]-5,8-dihydro-pyrido[2,3-d]pyrimidine-6-carboxylic acid methoxy-amide]",0.63,
"CONC(=O)c1cn(-c2ccc3c(c2)CCC3)c2nc(Nc3cccc(N4CC(C)NC(C)C4)c3)ncc2c1=O (centres unmarked) [Cpd 195, 2-[3-(3,5-dimethyl-piperazin-1-yl)-phenylamino]-8-indan-5-yl-5-oxo-5,8-dihydro-pyrido[2,3-d]pyrimidine-6-carboxylic acid methoxy-amide]",0.96,
"CCc1ccc(-n2cc(C(=O)NOC)c(=O)c3cnc(Nc4ccc(OC5CN6CCC5CC6)cc4)nc32)cc1 (centres unmarked) [Cpd 268, 2-[4-(1-aza-bicyclo[2.2.2]oct-3-yloxy)-phenylamino]-8-(4-ethyl-phenyl)-5-oxo-5,8-dihydro-pyrido[2,3-d]pyrimidine-6-carboxylic acid methoxy-amide]",0.4,
"CCONC(=O)c1cn(-c2ccc(CC)cc2)c2nc(Nc3ccc(C4CCN(CC)CC4)cc3)ncc2c1=O [Cpd 181, 8-(4-ethyl-phenyl)-2-[4-(1-ethyl-piperidin-4-yl)-phenylamino]-5-oxo-5,8-dihydro-pyrido[2,3-d]pyrimidine-6-carboxylic acid ethoxy-amide]",0.2,
"CNC(=O)c1cn(-c2ccc3c(c2)CCC3)c2nc(Nc3cccc(CCCN(C)C)c3)ncc2c1=O [Cpd 116, 2-[3-(3-dimethylamino-propyl)-phenylamino]-8-indan-5-yl-5-oxo-5,8-dihydro-pyrido[2,3-d]pyrimidine-6-carboxylic acid methylamide]",5.3,

# The next lines start with the values.
IC50 [1] [nM],"IC50 (c-fms Peptide IC50, 0.7 nM CSF-1R) [nM]",Structure (SMILES)
0.4,,"CCc1ccc(-n2cc(C(=O)NOC)c(=O)c3cnc(Nc4ccc5c(c4)OCCOCCOCCOCCO5)nc32)cc1 [Cpd 297, 8-(4-ethyl-phenyl)-2-(6,7,9,10,12,13,15,16-octahydro-5,8,11,14,17-pentaoxa-benzocyclopentadecen-2-ylamino)-5-oxo-5,8-dihydro-pyrido[2,3-d]pyrimidine-6-carboxylic acid methoxy-amide]"
,0.4,"CONC(=O)c1cn(C2CCC(C)(C)CC2)c2nc(Nc3ccc(C4CCN(C)CC4)cc3)ncc2c1=O [Cpd 209, 8-(4,4-dimethyl-cyclohexyl)-2-[4-(1-methyl-piperidin-4-yl)-phenylamino]-5-oxo-5,8-dihydro-pyrido[2,3-d]pyrimidine-6-carboxylic acid methoxy-amide]"
1.2,,"CONC(=O)c1cn(-c2ccc3c(c2)CCC3)c2nc(Nc3cccc(CCN4CCN(C(C)=O)CC4)c3)ncc2c1=O [Cpd 204, 2-{3-[2-(4-acetyl-piperazin-1-yl)-ethyl]-phenylamino}-8-indan-5-yl-5-oxo-5,8-dihydro-pyrido[2,3-d]pyrimidine-6-carboxylic acid methoxy-amide]"
0.5,,"CCc1ccc(-n2cc(C(=O)NOC)c(=O)c3cnc(Nc4cccc(N5CCN(C)CC5)c4)nc32)cc1 [Cpd 321, 8-(4-ethyl-phenyl)-2-[3-(4-methyl-piperazin-1-yl)-phenylamino]-5-oxo-5,8-dihydro-pyrido[2,3-d]pyrimidine-6-carboxylic acid methoxy-amide]"
1.6,,"CONC(=O)c1cn(-c2ccc3c(c2)CCC3)c2nc(Nc3ccc(C(=O)NS(C)(=O)=O)cc3)ncc2c1=O [Cpd 214, 8-indan-5-yl-2-(4-methanesulfonylaminocarbonyl-phenylamino)-5-oxo-5,8-dihydro-pyrido[2,3-d]pyrimidine-6-carboxylic acid methoxy-amide]"
1,,"CCc1ccc(-n2cc(C(=O)NOC)c(=O)c3cnc(Nc4ccc(OCCCOC)c(OCCCOC)c4)nc32)cc1 [Cpd 323, 2-[3,4-bis-(3-methoxy-propoxy)-phenylamino]-8-(4-ethyl-phenyl)-5-oxo-5,8-dihydro-pyrido[2,3-d]pyrimidine-6-carboxylic acid methoxy-amide]"
